The values below come from patent US11667606B2, “Thyromimetics” (Autobahn Therapeutics, Inc., priority 2019, dated 2023).

The structures appear in SMILES notation. pEC50: −log10 of the molar value.

The target of assay [1] is T1, TRβ (Homo sapiens, UniProt P10828).
T1 construct: expressed in transfected cells; host or cells: HEK293
T1 sequence (P10828 217-461 limits assumed): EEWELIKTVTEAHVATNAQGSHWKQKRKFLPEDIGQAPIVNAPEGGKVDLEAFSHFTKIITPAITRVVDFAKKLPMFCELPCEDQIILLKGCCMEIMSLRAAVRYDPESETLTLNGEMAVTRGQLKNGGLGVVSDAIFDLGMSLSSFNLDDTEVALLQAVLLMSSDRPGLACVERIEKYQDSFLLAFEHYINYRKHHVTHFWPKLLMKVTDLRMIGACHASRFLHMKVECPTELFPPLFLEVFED
Briefly: Thyroid-hormone reporter-gene assay, TRβ (Gal4 DBD hybrid, luciferase, HEK293). The format is cell-based. Particulars: for T3-SI, selectivity index (SI) calculated as EC50 (TRα)/EC50 (TRβ): TRβ over TRα selectivity from reporter-gene EC50 values; for pEC50: reporter cells derived from HEK293, 24 hr incubation, luciferase readout. How it is done:
(§1) Compounds were tested for thyroid-hormone receptor activity using TR reporter-gene assays. Reporter cells used in the assays express a TR-receptor hybrid (either TRα or TRβ) in which the native N-terminal DNA binding domain (DBD) has been replaced with that of the yeast Gal4 DBD. The reporter gene, firefly luciferase, is functionally linked to the Gal4 upstream activation sequence (UAS). Both cell lines were derived from human embryonic kidney (HEK293).
(§2) A suspension of reporter cells was prepared in cell recovery medium containing 10% charcoal-stripped FBS, and dispensed into assay plates. The plates were pre-incubated for 6 hours in a cell culture incubator (37° C./5% CO2/85% humidity).
(§3) These intermediate stocks were subsequently diluted directly into compound screening medium containing 10% charcoal-stripped FBS to generate “2×-concentration” treatment media (containing 0.2, 0.4 or 0.8% DMSO).
(§4) At the end of the pre-incubation period, culture media were discarded from the assay plates, and all wells received 100 μl of compound screening medium. 100 μl of each of the previously prepared “2×-concentration” treatment media were dispensed into duplicate assay wells, thereby achieving the desired final treatment concentrations. The final concentration of DMSO in all assay wells was 0.1, 0.2 or 0.4%. Assay plates were incubated for 24 hr in a cell culture incubator (37° C./5% CO2/85% humidity).
(§5) At the 24 h assay endpoint, treatment media were discarded and […] of luciferase detection reagent was added. Relative luminometer units (RLUs) were quantified from each assay well.

The target of assay [2] is T2, TRα (Homo sapiens, UniProt P10827).
T2 construct: expressed in transfected cells; host or cells: HEK293
T2 sequence (P10827 128-410 isoform P10827-2 limits assumed): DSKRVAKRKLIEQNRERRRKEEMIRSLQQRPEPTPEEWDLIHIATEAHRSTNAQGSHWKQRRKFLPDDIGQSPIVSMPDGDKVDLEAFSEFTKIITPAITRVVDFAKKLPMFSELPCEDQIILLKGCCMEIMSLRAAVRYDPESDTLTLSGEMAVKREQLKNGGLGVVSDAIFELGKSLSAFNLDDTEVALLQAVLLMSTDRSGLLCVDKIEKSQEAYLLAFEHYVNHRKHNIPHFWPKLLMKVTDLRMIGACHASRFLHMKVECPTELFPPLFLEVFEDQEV
Kind of assay: Thyroid-hormone reporter-gene assay, TRα (Gal4 DBD hybrid, luciferase, HEK293). Particulars: reporter cells derived from HEK293, 24 hr incubation, luciferase readout. The format is cell-based. The protocol:
as §1, §2, §3, §4, §5

A word on the pEC50: it is the EC50 on a negative log10 scale, so that one unit is a factor of ten.

For the compound `CCCc1cccc(-c2cc(Cc3c(Cl)cc(OCC(=O)O)cc3Cl)ccc2O)c1` [Compound 16, 2-(3,5-dichloro-4-((6-hydroxy-3′-propyl-[1,1′-biphenyl]-3-yl)methyl)phenoxy)acetic Acid], in assay [1], the “T3-SI, selectivity index (SI) calculated as EC50 (TRα)/EC50 (TRβ)” value (“T3-SI, selectivity index (SI) calculated” for short) is recorded as “+++ (T3-SI > 30X)” and the negative-log EC50 (pEC50) was 6.00 to 7.00. The compound also had a pEC50 in assay [2] below 6.00.
The matching figures for `Cc1cccc(-c2cc(Cc3c(Cl)cc(OCC(=O)O)cc3Cl)ccc2O)c1` [Compound 17, 2-(3,5-dichloro-4-((6-hydroxy-3′-methyl-[1,1′-biphenyl]-3-yl)methyl)phenoxy)acetic Acid]: “++ (3X < T3-SI ≤ 30X)”, 6.00 to 7.00 and below 6.00.
On the same counts, the results for `N#Cc1cccc(-c2cc(Cc3c(Cl)cc(OCC(=O)O)cc3Cl)ccc2O)c1` [Compound 19, 2-(3,5-dichloro-4-((3′-cyano-6-hydroxy-[1,1′-biphenyl]-3-yl)methyl)phenoxy)acetic Acid] are “++ (3X < T3-SI ≤ 30X)”, 7.00 to 8.00 and 6.00 to 7.00.
Turning to `C=Cc1cccc(-c2cc(Cc3c(Cl)cc(OCC(=O)O)cc3Cl)ccc2O)c1` [Compound 21, 2-(3,5-dichloro-4-((6-hydroxy-3′-vinyl-[1,1′-biphenyl]-3-yl)methyl)phenoxy)acetic Acid], the “T3-SI, selectivity index (SI) calculated” value in assay [1] is listed as “++ (3X < T3-SI ≤ 30X)”. The negative logarithm of the EC50 (pEC50) in assay [1] is 6.00 to 7.00; in assay [2], below 6.00.
As to `C=C(C)c1cccc(-c2cc(Cc3c(Cl)cc(OCC(=O)O)cc3Cl)ccc2O)c1` [Compound 22, 2-(3,5-dichloro-4-((6-hydroxy-3′-(prop-1-en-2-yl)-[1,1′-biphenyl]-3-yl)methyl)phenoxy)acetic Acid], the negative logarithm of the EC50 (pEC50) in assay [1] and in assay [2] was below 6.00 in each case.
In the case of `O=C(O)COc1cc(Cl)c(Cc2ccc(O)c(-c3cccc(CC(F)(F)F)c3)c2)c(Cl)c1` [Compound 26, 2-(3,5-dichloro-4-((6-hydroxy-3′-(2,2,2-trifluoroethyl)-[1,1′-biphenyl]-3-yl)methyl)phenoxy)acetic Acid], in assay [1], the “T3-SI, selectivity index (SI) calculated” value is listed as “+++ (T3-SI > 30X)” and the pEC50 is 6.00 to 7.00. The negative logarithm of the EC50 (pEC50) in assay [2] was below 6.00.
With `O=C(O)COc1cc(Cl)c(Cc2ccc(O)c(-c3cccc(Cl)c3)c2)c(Cl)c1` [Compound 29, 2-(3,5-dichloro-4-((3′-chloro-6-hydroxy-[1,1′-biphenyl]-3-yl)methyl)phenoxy)acetic Acid], in assay [1], the “T3-SI, selectivity index (SI) calculated” value is on record as “++ (3X < T3-SI ≤ 30X)” and the pEC50 was 7.00 to 8.00. In addition, the negative-log EC50 (pEC50) in assay [2] is 6.00 to 7.00.
For the compound `O=C(O)COc1cc(Cl)c(Cc2ccc(O)c(-c3cccs3)c2)c(Cl)c1` [Compound 34, 2-(3,5-dichloro-4-(4-hydroxy-3-(thiophen-2-yl)benzyl)phenoxy)acetic acid], in assay [1], the “T3-SI, selectivity index (SI) calculated” value is “++ (3X < T3-SI ≤ 30X)” and the pEC50 was 6.00 to 7.00. Further, the pEC50 in assay [2] is below 6.00.
For the compound `O=C(O)COc1cc(Cl)c(Cc2ccc(O)c(-c3cc(Cl)cs3)c2)c(Cl)c1` [Compound 36, 2-(3,5-dichloro-4-(3-(4-chlorothiophen-2-yl)-4-hydroxybenzyl)phenoxy) acetic Acid], in assay [1], the “T3-SI, selectivity index (SI) calculated” value is “++ (3X < T3-SI ≤ 30X)”. The pEC50 in assay [1] and in assay [2] was below 6.00 in each case.
As for `O=C(O)COc1cc(Cl)c(Cc2ccc(O)c(-c3ccco3)c2)c(Cl)c1` [Compound 38, 2-(3,5-dichloro-4-(3-(furan-2-yl)-4-hydroxybenzyl)phenoxy)acetic acid], in assay [1], the “T3-SI, selectivity index (SI) calculated” value was “++ (3X < T3-SI ≤ 30X)” and the pEC50 is below 6.00. Also, the negative logarithm of the EC50 (pEC50) in assay [2] is below 6.00.
As for `O=C(O)COc1cc(Cl)c(Cc2ccc(O)c(-c3ccoc3)c2)c(Cl)c1` [Compound 40, 2-(3,5-dichloro-4-(3-(furan-3-yl)-4-hydroxybenzyl)phenoxy)acetic acid], in assay [1], the “T3-SI, selectivity index (SI) calculated” value is on record as “++ (3X < T3-SI ≤ 30X)” and the negative-log EC50 (pEC50) was below 6.00. In addition, the pEC50 in assay [2] is below 6.00.
`O=C(O)COc1cc(Cl)c(Cc2ccc(O)c(-c3ccsc3)c2)c(Cl)c1` [Compound 42, 2-(3,5-dichloro-4-(4-hydroxy-3-(thiophen-3-yl)benzyl)phenoxy)acetic acid]: in assay [1], the “T3-SI, selectivity index (SI) calculated” value is reported as “++ (3X < T3-SI ≤ 30X)” and the pEC50 is 6.00 to 7.00. The compound further gave a negative logarithm of the EC50 (pEC50) in assay [2] below 6.00.
With `O=C(O)COc1cc(Cl)c(Cc2ccc(O)c(-c3csc(Cl)c3)c2)c(Cl)c1` [Compound 43, 2-(3,5-dichloro-4-(3-(5-chlorothiophen-3-yl)-4-hydroxybenzyl)phenoxy) acetic Acid], in assay [1], the “T3-SI, selectivity index (SI) calculated” value is “++ (3X < T3-SI ≤ 30X)” and the pEC50 was 6.00 to 7.00. In assay [2], this compound gave a pEC50 below 6.00.
`O=C(O)COc1cc(Cl)c(Cc2ccc(O)c(-c3cc(C(F)(F)F)ccc3F)c2)c(Cl)c1` [Compound 45, 2-(3,5-dichloro-4-((2′-fluoro-6-hydroxy-5′-(trifluoromethyl)-[1,1′-biphenyl]-3-yl)methyl)phenoxy)acetic Acid]: in assay [1], the “T3-SI, selectivity index (SI) calculated” value was “++ (3X < T3-SI ≤ 30X)” and the negative logarithm of the EC50 (pEC50) was 7.00 to 8.00. Besides, the pEC50 in assay [2] was 6.00 to 7.00.
For `O=C(O)COc1cc(Cl)c(Cc2ccc(O)c(-c3cccc(C(F)(F)F)c3F)c2)c(Cl)c1` [Compound 49, 2-(3,5-dichloro-4-((2′-fluoro-6-hydroxy-3′-(trifluoromethyl)-[1,1′-biphenyl]-3-yl)methyl)phenoxy)acetic Acid], in assay [1], the “T3-SI, selectivity index (SI) calculated” value is recorded as “++ (3X < T3-SI ≤ 30X)” and the negative logarithm of the EC50 (pEC50) is 6.00 to 7.00. The same compound gave a pEC50 in assay [2] below 6.00.
For `CCc1ccc(F)c(-c2cc(Cc3c(Cl)cc(OCC(=O)O)cc3Cl)ccc2O)c1` [Compound 51, 2-(3,5-dichloro-4-((5′-ethyl-2′-fluoro-6-hydroxy-[1,1′-biphenyl]-3-yl)methyl)phenoxy)acetic Acid], in assay [1], the “T3-SI, selectivity index (SI) calculated” value was “++ (3X < T3-SI ≤ 30X)” and the pEC50 was below 6.00. This compound also gave a pEC50 in assay [2] below 6.00.
For the compound `O=C(O)COc1cc(Cl)c(Cc2ccc(O)c(-c3cc(OC(F)F)ccc3F)c2)c(Cl)c1` [Compound 52, 2-(3,5-dichloro-4-((5′-(difluoromethoxy)-2′-fluoro-6-hydroxy-[1,1′-biphenyl]-3-yl)methyl)phenoxy)acetic Acid], in assay [1], the “T3-SI, selectivity index (SI) calculated” value is on record as “++ (3X < T3-SI ≤ 30X)” and the negative logarithm of the EC50 (pEC50) is 7.00 to 8.00. In assay [2], the negative logarithm of the EC50 (pEC50) was 6.00 to 7.00.
On to `O=C(O)COc1cc(Cl)c(Cc2ccc(O)c(-c3cc(F)cc(OC(F)F)c3)c2)c(Cl)c1` [Compound 54, 2-(3,5-dichloro-4-((3′-(difluoromethoxy)-5′-fluoro-6-hydroxy-[1,1′-biphenyl]-3-yl)methyl)phenoxy)acetic Acid], for which, in assay [1], the “T3-SI, selectivity index (SI) calculated” value is “++ (3X < T3-SI ≤ 30X)” and the pEC50 is 6.00 to 7.00. Also, in assay [2], the pEC50 was below 6.00.
For the compound `O=C(O)COc1cc(Cl)c(Cc2ccc(O)c(-c3cccc(OC(F)F)c3F)c2)c(Cl)c1` [Compound 56, 2-(3,5-dichloro-4-((3′-(difluoromethoxy)-2′-fluoro-6-hydroxy-[1,1′-biphenyl]-3-yl)methyl)phenoxy)acetic Acid], the “T3-SI, selectivity index (SI) calculated” value in assay [1] is “++ (3X < T3-SI ≤ 30X)”. Besides, the results for the negative logarithm of the EC50 (pEC50) in assay [1] and in assay [2] were 6.00 to 7.00 and below 6.00, respectively.
On to `CCc1cccc(-c2cc(Cc3c(C)cc(OCC(=O)O)cc3Cl)ccc2O)c1` [Compound 60, 2-(3-chloro-4-((3′-ethyl-6-hydroxy-[1,1′-biphenyl]-3-yl)methyl)-5-methylphenoxy)acetic Acid], for which the “T3-SI, selectivity index (SI) calculated” value in assay [1] is “+++ (T3-SI > 30X)”. Further, the pEC50 was 6.00 to 7.00 in assay [1] and below 6.00 in assay [2].
`Cc1cc(OCC(=O)O)cc(Cl)c1Cc1ccc(O)c(-c2cccc(OC(F)F)c2)c1` [Compound 62, 2-(3-chloro-4-((3′-(difluoromethoxy)-6-hydroxy-[1,1′-biphenyl]-3-yl)methyl)-5-methylphenoxy)acetic Acid]: the “T3-SI, selectivity index (SI) calculated” value in assay [1] is reported as “++ (3X < T3-SI ≤ 30X)”. The negative-log EC50 (pEC50) in assay [1] was 6.00 to 7.00; in assay [2], below 6.00.
